Test results as given in paper PMC10302231, “Enhancing Cell Penetration Efficiency of Cyclic Oligoarginines Using Rigid Scaffolds” (Pharmaceutics, 2023).
Where a SMILES comes first, the peptide text is derived from it. Bridges are numbered along the chain shown (N, C = ends). The star is where a group is joined. 5FAM = O=C1OC2(c3ccc(O)cc3Oc3cc(O)ccc32)c2ccc(C(=O)*)cc21

Assays:
[1] = tested on: EBC-1 human lung squamous cancer cells; experiment: Cellular uptake (internalization) of Cf-labelled peptides by flow cytometry; assay type: cell-based; settings: 90 min; for cellular uptake compared with linear peptide Acyl-Met-(Arg)6-Met-(Gly)4-Lys(Cf) / efficacy (internalization) of tetra- versus hexaarginine bicyclic derivative / internalization compared with octaarginine (in words): EBC-1 cells, 1, 5, 10 µM; for internalization relative to octaarginine (Cf-Arg8): Cf-labelled peptides at 1, 5, 10 µM, trypsin treatment, flow cytometry fluorescence intensity, mean ± SD
Procedure: The internalization study of fluorophore-labeled peptides was performed on 24-well plates with 10^5 EBC-1 human lung squamous cancer cells (CRL-5889TM) per well. After 24 h incubation at 37 °C, the cells were treated with a serum-free medium as a negative control and with peptides in different concentrations (1, 5, 10 μM). After the incubation, 100 μL trypsin (0.25%) was used for 5–10 min to remove the excess peptides from the membranes and to detach the cells from the plates. By adding 800 µL of HPMI buffer (glucose, NaHCO3, NaCl, HEPES, KCl, MgCl2, CaCl2, Na2HPO4 × 2 H2O) containing 10% fetal bovine serum (FBS), the trypsin activity was stopped, and the cells were transferred to tubes for measurement. The cells were centrifuged at 216× g at 4 °C, and the supernatant was disposed of. The resuspended cells (in 250 μL HPMI) were used to measure their fluorescence intensity by flow cytometer (BDLSR II, BD Bioscience, San Jose, CA, USA). Data were analyzed with FACSDiVa 5.0 software (BD Bioscience, San Jose, CA, USA).
The internalization of peptides was measured by flow cytometry on EBC-1 cells. The carboxyfluorescein-labeled peptides were studied at 1, 5, and 10 μM concentrations. The cells were treated for 90 min at 37 °C.

EBC-1 cells = experiment: Cellular uptake after pretreatment with endocytosis inhibitors, flow cytometry; assay type: cell-based, human; settings: peptide 5 μM 90 min 37 °C; for effect of CPZ (clathrin-mediated endocytosis inhibitor) on cellular uptake: CPZ 30 μM pretreatment 30 min
Procedure: In order to study the effect of inhibitors, the peptide conjugates were administered at 5 μM when the cells were pretreated by the inhibitors for 30 min. The cells were then kept at 37 °C for 90 min. Macropinocytosis was inhibited using 5-(N-ethyl-N-isopropyl)amiloride (EIPA), clathrin-mediated endocytosis with chlorpromazine (CPZ), colchicine (Col) to assess the role of microtubules, and methyl-β-cyclodextrin (CyD) for the inhibition of caveolae/lipid-raft-mediated endocytosis.
The CPPs can use several pathways to enter the cell. The dependence of the cellular uptake was measured for each Dabcyl-containing cyclic BBMB peptide using different inhibitors (Figure 7). The 5-(N-ethyl-N-isopropyl)amiloride (EIPA) inhibits macropinocytosis, chlorpromazine (CPZ) inhibits clathrin-mediated endocytosis, and colchicine (COL) was used to inhibit microtubule formation. Finally, methyl-beta-cyclodextrin (CyD) was used to inhibit caveolae-mediated endocytosis.
Figure 7 Effect of endocytosis inhibitors on the cellular uptake of peptides. Before the treatment with the peptide conjugates (5 μM) for 90 min, the EBC-1 cells were pretreated with inhibitors EIPA (50 μM), CPZ (30 μM), CyD (5 mM), and COL (10 mM) for 30 min. Significant difference from the control was measured using Student’s t-test (* p < 0.05). Data represent the mean ± standard deviation (SD).

[2] = Stability measurement in 25% human plasma; assay type: in vitro ADME; settings: 25% human plasma (sodium citrate), 37 °C, aliquots at 0, 1 and 24 h, RP-HPLC; preliminary experiment
Procedure: The analysis was carried out based on the details described in Yuchen Hu et al.. The linear (Dabcyl-Met-(Arg)6-Met-(Gly)4-Lys(Cf)) and cyclic (Dabcyl-Cys-(Arg)6-Cys-(Gly)4-Lys(Cf) para BBMB) peptides were incubated with 25% human plasma at 37 °C. An aliquot of the peptide; human plasma mixture was taken at time points 0, 1, and 24 h. The samples were analyzed by RP-HPLC.
The molecular weight of peptides and conjugates was determined with ESI-MS using Bruker Amazon SL (Germany). The samples were dissolved in water-acetonitrile solution (50:50) with 0.1% formic acid. The samples were directly injected with a syringe pump.
Parameters: capillary voltage: 4 kV, nebulizer gas: 10 psi, dry gas: 4 L/min, heated capillary temperature: 250 °C.
EBC-1 human lung squamous cancer cells (CRL-5889TM) were used for the in vitro analysis. These cells were a generous gift of Prof. […]
Analytical RP-HPLC was performed on Exformma (Exformma Technology (ASIA) Co., Ltd, Hong Kong, China) HPLC system. […] Linear gradient elution (0 min 0% B; 2 min 0% B; 22 min 90% B) was used with eluent A (0.1% TFA in water) and eluent B (0.1% TFA in acetonitrile-water (80:20, v/v)) at 1mL/min flowrate, the peaks were detected at λ= 220 nm for both analytical and preparative RP-HPLC. […]
Samples were taken in 0, 1 and 24 hour time periods and measured with analytical HPLC. […]

For CC(=O)N[C@H]1CSSC[C@@H](C(=O)NCC(=O)NCC(=O)NCC(=O)NCC(=O)N[C@@H](CCCCNC(=O)c2ccc3c(c2)C(=O)OC32c3ccc(O)cc3Oc3cc(O)ccc32)C(N)=O)NC(=O)[C@H](CCCNC(=N)N)NC(=O)[C@H](CCCNC(=N)N)NC(=O)[C@H](CCCNC(=N)N)NC(=O)[C@H](CCCNC(=N)N)NC(=O)[C@H](CCCNC(=N)N)NC(=O)[C@H](CCCNC(=N)N)NC1=O [Acyl-Cys((Arg)6-Cys)-(Gly)4-Lys(Cf)] (Ac-CRRRRRRCGGGGK(5FAM)-NH2; disulfide 1-8), which “efficiency of cellular uptake compared with octaarginine at 5 µM” value ([1]; EBC-1 cells, 5 µM, 37 °C, flow cytometry) is on record?
Its value is “the same”.

And the “efficiency of cellular uptake compared with octaarginine at 10 µM” value ([1]; EBC-1 cells, 10 µM, 37 °C, flow cytometry)?
Its value is “almost half”.

What about the “cellular uptake compared with linear peptide Acyl-Met-(Arg)6-Met-(Gly)4-Lys(Cf)” value ([1]; 37 °C, flow cytometry) of the same compound?
The value was “better cellular uptake”.

What about the “cellular uptake compared with linear peptide Acyl-Met-(Arg)6-Met-(Gly)4-Lys(Cf)” value ([1]; 37 °C, flow cytometry, listed as Acyl-Cys-(Arg)6-Cys-(Gly)4-Lys(Cf)) of the same compound?
The value was “did increase the internalization”.

With “Acyl-Cys-(Arg)2-Cys-(Arg)2-Cys-Lys(Cf) TBMB (bicyclic or more) [acylated bicyclic tetraarginine peptide on TBMB scaffold]” as the compound, how does the “efficacy (internalization) of tetra- versus hexaarginine bicyclic derivative” value ([1]; flow cytometry) read?
The value was “no difference”.

Which “efficacy (internalization) of tetra- versus hexaarginine bicyclic derivative” value ([1]; flow cytometry) does the source give for “Acyl-Cys-(Arg)3-Cys-(Arg)3-Cys-Lys(Cf) TBMB (bicyclic or more) [acylated bicyclic hexaarginine peptide on TBMB scaffold]” here?
Its value is “no difference”.

Which “effect of CPZ (clathrin-mediated endocytosis inhibitor) on cellular uptake” value (EBC-1 cells) does the source give for “Dabcyl-(Arg)6-Cys-(Gly)4-Cys-Lys(Cf) orto BBMB (sidechain bridge or staple) [Dabcyl cyclic peptide, orto BBMB, hexaarginine at N-terminus]” here?
Its value is “inhibits”.

Which “effect of CPZ (clathrin-mediated endocytosis inhibitor) on cellular uptake” value (EBC-1 cells) does the source give for “Dabcyl-(Arg)6-Cys-(Gly)4-Cys-Lys(Cf) para BBMB (sidechain bridge or staple) [Dabcyl cyclic peptide, para BBMB, hexaarginine at N-terminus]” here?
Its value is “inhibits”.

With “Dabcyl-Cys((Arg)6-Cys)-(Gly)4-Lys(Cf) (disulfide) [Dabcyl cyclic peptide with disulfide bond, Cf-labelled]” as the compound, how does the “internalization compared with octaarginine (in words)” value ([1]; 37 °C, flow cytometry) read?
The value was “still better”.

And the “internalization relative to octaarginine (Cf-Arg8)” value ([1]; EBC-1 cells, 37 °C)?
Its value is 1.5–2 fold.

For “Dabcyl-Cys-(Arg)4-Cys-(Arg)4-Cys-Lys(Cf) TBMB (bicyclic or more) [Dabcyl bicyclic octaarginine peptide on TBMB scaffold]”, which “internalization compared with octaarginine (in words)” value ([1]; 37 °C, flow cytometry) is on record?
The value was “better internalization”.

And the “internalization relative to octaarginine (Cf-Arg8)” value ([1]; EBC-1 cells, 37 °C)?
Its value is 3 fold.

Which “internalization relative to octaarginine (Cf-Arg8)” value ([1]; EBC-1 cells, 37 °C) does the source give for “Dabcyl-Cys-(Arg)6-Cys-(Gly)4-Lys(Cf) orto BBMB (sidechain bridge or staple) [Dabcyl cyclic peptide, orto BBMB, hexaarginine in the cycle]” here?
Its value is 5 fold.

And the “effect of CPZ (clathrin-mediated endocytosis inhibitor) on cellular uptake” value (EBC-1 cells)?
Its value is “inhibits”.

With “Dabcyl-Cys-(Arg)6-Cys-(Gly)4-Lys(Cf) para BBMB (sidechain bridge or staple) [Dabcyl cyclic peptide, para BBMB, hexaarginine in the cycle]” as the compound, how does the “toxicity in the uptake experiment” value ([1]; EBC-1 cells, 10 µM, 37 °C) read?
Its value is “showed toxicity”.

What about the “internalization relative to octaarginine (Cf-Arg8)” value ([1]; EBC-1 cells, 37 °C) of the same compound?
The value was 5 fold.

What about the “stability in 25% human plasma” value [2] of the same compound?
The value was “stable”.

And the “effect of CPZ (clathrin-mediated endocytosis inhibitor) on cellular uptake” value (EBC-1 cells)?
Its value is “inhibits”.

With “Dabcyl-Cys-(Gly)4-Cys-(Arg)6-Lys(Cf) orto BBMB (sidechain bridge or staple) [Dabcyl cyclic peptide, thioether bonds to orto BBMB, hexaarginine at C-terminus]” as the compound, how does the “effect of EIPA (macropinocytosis inhibitor) on cellular uptake” value (EBC-1 cells; EIPA 50 μM pretreatment 30 min, Student's t-test p < 0.05) read?
The value was “did not have an effect”.
